# BindingDB's records for doi:10.7270/Q2D21W1M (Nmmlsc, 2009)
# Molecular target: T1, GTPase KRas [1-37] (Homo sapiens, UniProt G3V5T7)
# T1 construct: 1-37
# Assay: Ras wt fluorescent nucleotide binding blockade – biochemical, additional analogs, wildtype, multiplex flow cytometry, Ki, SAR follow-up (AID 2038)
# Details: not given
# T1 sequence (G3V5T7 whole entry): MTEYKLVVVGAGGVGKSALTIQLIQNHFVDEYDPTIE
row,SMILES,EC50 [µM]
1,O=C1Nc2c(Cl)cccc2C1=C1Nc2ccccc2C1=O,30
2,O=C1Nc2c(Br)cccc2C1=C1Nc2ccccc2C1=O,30
3,O=C1Nc2c(F)cccc2C1=C1Nc2ccccc2C1=O,30
4,O=C1NC(=O)/C(=C2/C(=O)Nc3ccccc32)N1,30
5,O=C1Nc2ccc(Br)cc2C1=C1Nc2ccccc2C1=O,30
6,"O=C1Nc2ccccc2/C1=C1/Nc2ccccc2C1=O [2-[(3Z)-2-oxo-2,3-dihydro-1H-indol-3-ylidene]-2,3-dihydro-1H-indol-3-one]",30
7,O=C1N=c2ccccc2=C1c1[nH]c2ccccc2c1NO [3-[3-(hydroxyamino)-1H-indol-2-yl]-2-indolone],30
8,O=C1N=c2ccc(Br)cc2=C1c1[nH]c2ccccc2c1NO [5-bromanyl-3-[3-(oxidanylamino)-1H-indol-2-yl]indol-2-one],30
9,O=C1N=c2c(Br)cccc2=C1c1[nH]c2ccccc2c1NO [7-bromanyl-3-[3-(oxidanylamino)-1H-indol-2-yl]indol-2-one],37.5
10,O=C1N=c2c(Cl)cccc2=C1c1[nH]c2ccccc2c1NO [7-chloro-3-[3-(hydroxyamino)-1H-indol-2-yl]-2-indolone],30
11,O=C1N=c2c(F)cccc2=C1c1[nH]c2ccccc2c1NO [7-fluoro-3-[3-(hydroxyamino)-1H-indol-2-yl]-2-indolone],30
12,O=C1NC(=S)N/C1=C1\C(=O)Nc2ccccc21 [(3Z)-3-(5-oxo-2-sulfanylideneimidazolidin-4-ylidene)-1H-indol-2-one],30
13,COc1ccc2cc([C@H](C)C(=O)O)ccc2c1 [UNM-0000306098],30
14,C[C@@H](C(=O)O)c1cccc(Oc2ccccc2)c1 [calcium;2-(3-phenoxyphenyl)propanoic acid;hydrate],30
15,COc1ccc2cc([C@@H](C)C(=O)O)ccc2c1 [sodium;(2R)-2-(6-methoxy-2-naphthalenyl)propanoate],3.11

# Same assay, conditions: inactive by the depositor's call
row,SMILES,EC50 [µM]
1,O=C1Nc2cccc(Br)c2/C1=C1/Cc2ccccc2C1=O,30
2,COc1ccc(S(=O)(=O)n2c(N)c(C#N)c(-c3ccccc3)c2C(=O)c2ccc(Br)cc2)cc1,30
3,O=[N+]([O-])c1ccc(C#Cc2ccccc2)cc1,30
4,O=C(C#Cc1ccccc1)c1ccc(OC(F)(F)F)cc1,30
5,COc1ccc(C(=O)C#Cc2ccccc2)cc1 [1-(4-methoxyphenyl)-3-phenyl-2-propyn-1-one],30
6,O=C(C#Cc1ccccc1)c1ccc([N+](=O)[O-])cc1 [1-(4-nitrophenyl)-3-phenyl-2-propyn-1-one],30
7,CC(C(=O)O)c1cccc(C(=O)c2ccccc2)c1 (configuration not stated) [2-(3-benzoylphenyl)propanoic acid],30
8,COc1ccc2cc(CC(=O)O)ccc2c1 [2-(6-methoxynaphthalen-2-yl)ethanoic acid],30
9,CC(=O)Oc1ccccc1C(=O)O [2-(acetyloxy)benzoic acid],30
10,"CCCCS(=O)(=O)n1c(N)c(C#N)c(-c2cc(OC)c(OC)c(OC)c2)c1C(=O)c1ccccc1 [2-amino-5-benzoyl-1-butylsulfonyl-4-(3,4,5-trimethoxyphenyl)-3-pyrrolecarbonitrile]",30
11,COc1ccc(S(=O)(=O)n2c(N)c(C#N)c(-c3cncc(Br)c3)c2C(=O)c2ccccc2)cc1 [2-amino-5-benzoyl-4-(5-bromo-3-pyridinyl)-1-(4-methoxyphenyl)sulfonyl-3-pyrrolecarbonitrile],30
12,COc1ccc(-c2c(C#N)c(N)n(S(C)(=O)=O)c2C(=O)c2ccccc2)cc1Br [2-azanyl-4-(3-bromanyl-4-methoxy-phenyl)-1-methylsulfonyl-5-(phenylcarbonyl)pyrrole-3-carbonitrile],30
13,"COc1cc(-c2c(C#N)c(N)n(S(=O)(=O)c3c(C(C)C)cc(C(C)C)cc3C(C)C)c2C(=O)c2ccccc2)cc(OC)c1OC [2-azanyl-5-(phenylcarbonyl)-4-(3,4,5-trimethoxyphenyl)-1-[2,4,6-tri(propan-2-yl)phenyl]sulfonyl-pyrrole-3-carbonitrile]",30
14,O=C(C#Cc1ccccc1)c1cccnc1 [3-phenyl-1-pyridin-3-ylprop-2-yn-1-one],30
15,COC(=O)c1ccc(C(=O)C#Cc2ccccc2)cc1 [4-(1-oxo-3-phenylprop-2-ynyl)benzoic acid methyl ester],30
16,N#Cc1ccc(C(=O)C#Cc2ccccc2)cc1 [4-(3-phenylprop-2-ynoyl)benzenecarbonitrile],30
17,O=C1Nc2c(Br)cccc2/C1=C1/Cc2ccccc2C1=O [(3E)-7-bromo-3-(3-oxo-1H-inden-2-ylidene)-1H-indol-2-one],30
18,CC(C)Cc1ccc([C@H](C)C(=O)O)cc1 [(S)-2-(4-Isobutyl-phenyl)-propionic acid],30
19,O=C1Nc2ccccc2/C1=C1/Cc2ccccc2C1=O [UNM-0000305763],30
20,N#Cc1c(-c2ccc(Cl)cc2)c(C(=O)c2ccccc2)n(S(=O)(=O)c2ccc([N+](=O)[O-])cc2)c1N [UNM-0000305780],30
21,COc1ccc(S(=O)(=O)n2c(N)c(C#N)c(-c3cc(Br)c(OC)c(OC)c3)c2C(=O)c2ccccc2)cc1 [UNM-0000305782],30
22,O=C(C#Cc1ccccc1)c1ccccc1[N+](=O)[O-] [UNM-0000306038],30
23,O=C(C#Cc1ccccc1)c1ccccc1 [UNM-0000306039],30
24,O=C(C#Cc1ccccc1)c1ccc(Cl)cc1 [UNM-0000306055],30
25,O=C(C#Cc1ccccc1)c1ccc(F)cc1 [UNM-0000306059],31
26,CC1=C(CC(=O)O)c2cc(F)ccc2/C1=C/c1ccc([S+](C)[O-])cc1 (configuration not stated) [UNM-0000306136],30
27,CSc1ccc(/C=C2/C(C)=C(CC(=O)O)c3cc(F)ccc32)cc1 [{6-Fluoro-2-methyl-3-[1-(4-methylsulfanyl-phenyl)-meth-(E)-ylidene]-3H-inden-1-yl}-acetic acid],30
